Measured values: patent US20130123357A1, “Methods for Providing Enhanced Resveratrol Activity Using 4-Acetoxy-Resveratrol” (BRIGHAM YOUNG UNIVERSITY, priority 2010, published 2013)
Marks after values point to notes of the source that are not given here.

Experiments:
[1] = system: Type IV collagen alpha 1; test: Gene array qPCR, human dermal equivalent: Type IV collagen alpha 1; type: cell-based; conditions: 1.0% 4AR in DMSO, human skin equivalent, 24 hours, mRNA by qPCR
Excerpt: (§1) In this gene array experiment, we examined the ability of 4AR at a one percent concentration in DMSO (where 100% DMSO served as the vehicle) to either stimulate or inhibit several important genes and quantify directly the transcribed messenger RNA (mRNA) levels by Taqman real time PCR. The test material was placed onto a biological barrier (human dermal equivalent) using a MatTek “ready-to-use” in vitro organotypic tissue equivalent, based on well-documented and validated protocols, using the EpiDerm™ Model EPI-200 Kit. The MatTek kits uses normal (non-transformed) donated human cells as the basis for all of its tissue equivalents. These cells are grown (cultured) in standard Millipore Millicell™ Single Well Tissue Culture Plate Inserts at the air liquid interface or ALI. Apical (top) surface of tissue is exposed to air allowing for direct application of test articles. […] Once the 4 AR test material penetrated the human skin barrier equivalent the gene chip was activated and subsequently mRNA levels were quantified and the results represent stimulation or inhibition of a specific gene.
(§2) To investigate the effects of 4AR on the expression of genes associated with the extracellular matrix (ECM) of the skin, qPCR experiments were conducted using the tissue cultures (model system described above) with subsequent quantification of mRNA levels from […] tissue/cells. […]

[2] = system: Desmoglein 3; test: Gene array qPCR, human dermal equivalent: Desmoglein 3; type: cell-based; conditions: 1.0% 4AR in DMSO, human skin equivalent, 24 hours, mRNA by qPCR
Excerpt: as §1, §2

[3] = system: Type IV collagen alpha 2; test: Gene array qPCR, human dermal equivalent: Type IV collagen alpha 2; type: cell-based; conditions: 1.0% 4AR in DMSO, human skin equivalent, 24 hours, mRNA by qPCR
Excerpt: as §1, §2

[4] = system: Cytokeratin 2E; test: Gene array qPCR, human dermal equivalent: Cytokeratin 2E; type: cell-based; conditions: 1.0% 4AR in DMSO, human skin equivalent, 24 hours, mRNA by qPCR
Excerpt: as §1, §2

[5] = system: human dermal monolayer fibroblasts; test: Collagen deposition by ELISA for Human Type I collagen C-terminal propeptide; type: cell-based; conditions: approximately 9 μM, 48 hours, vehicle 0.1% DMSO
Method: 4′-Acetoxy-resveratrol was tested to determine whether it can stimulate collagen deposition in human monolayer dermal fibroblasts in the following examples. In this assay, we first determined the toxicity of the test materials (untreated cells, positive control-ascorbate, vehicle=0.1% DMSO, and a range of the 4′-acetoxy-resveratrol molecule, from approximately 10 nM to 10 μM).
The human dermal monolayer fibroblasts were exposed to the test materials for approximately 48 hours. Thereafter, the samples were processed for MTT and collagen deposition, etc.
Collagen deposition by ELISA for Human Type I collagen C-terminal propeptide was determined. Dermal fibroblasts synthesize primarily type I collagen, and the cleavage of the C-terminal propeptide is required for deposition into fibrils within the extracellular matrix. […] The amount of cleaved propeptide is directly proportional to the amount of type I collagen deposited, and can be precisely quantified using purified standards and a commercial ELISA kit (Takara Mirus, Inc., Cat. # TAK-MK-101). After 48 hours in the presence of the test materials or controls, culture medium supernatants were removed and immediately analyzed using the ELISA kit according to manufacturer's instructions using a Molecular Devices Vmax plate 96 well plate reader and SoftMax software. […]

[6] = system: Elastin; test: Gene array qPCR, human dermal equivalent: Elastin; type: cell-based; conditions: 1.0% 4AR in DMSO, human skin equivalent, 24 hours, mRNA by qPCR
Excerpt: as §1, §2

[7] = system: lysyl oxidase (LOX); test: Gene array qPCR, human dermal equivalent: LOX; type: cell-based; conditions: 1.0% 4AR in DMSO, human skin equivalent, 24 hours, mRNA by qPCR
Excerpt: as §1, §2

[8] = system: Nerve growth factor; test: Gene array qPCR, human dermal equivalent: Nerve growth factor; type: cell-based; conditions: 1.0% 4AR in DMSO, human skin equivalent, 24 hours, mRNA by qPCR
Excerpt: as §1, §2

[9] = system: Tissue Inhibitor of metalloproteinases 2 (TIMP2); test: Gene array qPCR, human dermal equivalent: TIMP2; type: cell-based; conditions: 1.0% 4AR in DMSO, human skin equivalent, 24 hours, mRNA by qPCR
Excerpt: as §1, §2

[10] = system: Catalase; test: Gene array qPCR, human dermal equivalent: Catalase; type: cell-based; conditions: 1.0% 4AR in DMSO, human skin equivalent, 24 hours, mRNA by qPCR
Excerpt: as §1, §2

[11] = system: Protein Kinase C alpha; test: Gene array qPCR, human dermal equivalent: Protein Kinase C alpha; type: cell-based; conditions: 1.0% 4AR in DMSO, human skin equivalent, 24 hours, mRNA by qPCR
Excerpt: as §1, §2

[12] = system: Fibrillin; test: Gene array qPCR, human dermal equivalent: Fibrillin; type: cell-based; conditions: 1.0% 4AR in DMSO, human skin equivalent, 24 hours, mRNA by qPCR
Excerpt: as §1, §2

[13] = system: IL-6 (interleukin 6); test: Gene array qPCR, human dermal equivalent: IL-6; type: cell-based; conditions: 1.0% 4AR in DMSO, human skin equivalent, 24 hours, mRNA by qPCR
Excerpt: as §1, §2

[14] = system: SIRT1 (Sirtuin 1); test: Gene array qPCR, human dermal equivalent: SIRT1; type: cell-based; conditions: 1.0% 4AR in DMSO, human skin equivalent, 24 hours
Excerpt: as §1, §2

[15] = target: T1, prostate type I 5α-reductase enzyme (Rattus norvegicus, UniProt P24008); test: Prostate 5α-reductase enzyme activity of treated rats; type: in vivo; conditions: DMSO controls 8.7 + 0.6
T1 construct: from tissue; host or cells: prostate of adult male Long-Evans rats dosed with 4AR for 21 days
T1 sequence (P24008 1-259): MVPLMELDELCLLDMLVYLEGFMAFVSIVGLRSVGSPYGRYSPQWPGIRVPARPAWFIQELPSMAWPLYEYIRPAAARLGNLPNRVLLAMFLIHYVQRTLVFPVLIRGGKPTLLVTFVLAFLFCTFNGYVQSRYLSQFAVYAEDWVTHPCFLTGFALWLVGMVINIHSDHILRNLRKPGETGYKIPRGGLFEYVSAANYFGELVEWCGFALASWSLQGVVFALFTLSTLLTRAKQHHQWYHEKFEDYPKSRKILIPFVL
Method: Adult male Long-Evans rats were administered 4AR for 21 days. DMSO served as the control and 4AR was dissolved into DMSO at the following concentrations: 5.0 mg/kg body weight, 20.0 mg/kg body weight and 90.0 mg/kg body weight (n=12 per group).
Since, the 5a-reductase enzyme (which converts testosterone to 5a-dihydrotestosterone) is important in prostate health in reference to benign prostatic hyperplasia (BPH) and the treatment and prevention of prostate cancer, we determined if prostate type I 5α-reductase enzyme activity was impacted by these treatments by quantifying the enzymatic rates of each animal as described above (in this study there were approximately 10 animals per treatment group).

[16] = system: Metallothionein 2; test: Gene array qPCR, human dermal equivalent: Metallothionein 2; type: cell-based; conditions: 1.0% 4AR in DMSO, human skin equivalent, 24 hours, mRNA by qPCR
Excerpt: as §1, §2

[17] = system: IL-8 (interleukin 8); test: Gene array qPCR, human dermal equivalent: IL-8; type: cell-based; conditions: 1.0% 4AR in DMSO, human skin equivalent, 24 hours, mRNA by qPCR
Excerpt: as §1, §2

[18] = system: IL-1RII (interleukin 1RII); test: Gene array qPCR, human dermal equivalent: IL-1RII; type: cell-based; conditions: 1.0% 4AR in DMSO, human skin equivalent, 24 hours, mRNA by qPCR
Excerpt: as §1, §2

[19] = system: S100 Calcium binding protein A8; test: Gene array qPCR, human dermal equivalent: S100 A8; type: cell-based; conditions: 1.0% 4AR in DMSO, human skin equivalent, 24 hours, mRNA by qPCR
Excerpt: as §1, §2

[20] = system: JunD; test: Gene array qPCR, human dermal equivalent: JunD; type: cell-based; conditions: 1.0% 4AR in DMSO, human skin equivalent, 24 hours, mRNA by qPCR
Excerpt: as §1, §2

[21] = system: FosB (FBJ murine osteosarcoma viral oncogene homolog B); test: Gene array qPCR, human dermal equivalent: FosB; type: cell-based; conditions: 1.0% 4AR in DMSO, human skin equivalent, 24 hours, mRNA by qPCR
Excerpt: as §1, §2

[22] = system: TGF (transforming growth factor) beta type II receptor; test: Gene array qPCR, human dermal equivalent: TGF beta type II receptor; type: cell-based; conditions: 1.0% 4AR in DMSO, human skin equivalent, 24 hours, mRNA by qPCR
Excerpt: as §1, §2

CC(=O)Oc1ccc(C=Cc2cc(O)cc(O)c2)cc1 [4AR, 3,5-dihydroxy-4′-acetoxy stilbene]
Type IV collagen alpha 1 increased by [1]: 1.7-fold
Desmoglein 3 decreased by [2]: by 1.9-fold
IV collagen alpha 2 increased by [3]: 1.8-fold
CK 2E decreased by [4]: 3.5-fold with
increase of collagen deposition compared to vehicle control [5]: 65%
Elastin increased by [6]: 2.8-fold
Lysyl oxidase increased by [7]: 1.9-fold
Nerve growth factor increased by [8]: 6.7-fold
TIMP2 increased by [9]: 1.3-fold
Catalase increased by [10]: 1.6-fold
Protein Kinase C alpha increased by [11]: 2.7-fold
Fibrillin increased by [12]: 1.3-fold with
IL-6 decreased by [13]: 35.2-fold
SIRT1 mRNA expression increased by [14]: 3.3-fold
5α-reductase enzyme activity ([15]; 5 mg/kg body weight): 4.6 + 0.4* pmol/hour incubation/mg of protein
5α-reductase enzyme activity ([15]; 20 mg/kg body weight): 3.3 + 0.3* pmol/hour incubation/mg of protein
5α-reductase enzyme activity ([15]; 90 mg/kg body weight): 2.0 + 0.2* pmol/hour incubation/mg of protein
Metallothionein 2 increased by [16]: 3.4-fold
IL-8 decreased by [17]: 3.8-fold
IL-1RII decreased by [18]: 1.9-fold
S100 Calcium binding protein A8 decreased by [19]: 2.7-fold
JunD increased by [20]: 2.1-fold
FosB increased by [21]: 8.2-fold
TGF beta type II receptor increased by [22]: 1.7-fold
